Laboratory results: the NIST ThermoML archive (doi:10.1016/j.jct.2013.12.031)
± gives the expanded uncertainty stated by the source.

Conditions: Crystal; visual observation

Normal melting temperature: 120.00 ± 0.5 °C
SMILES: Cc1ccc(S(=O)(=O)[O-])cc1.c1ccc2sc[nH+]c2c1 [benzothiazolium p-toluenesulfonate]
